Laboratory results as given in the supplement of paper PMC10307832.

These cell lines were tested with NCC(=O)Nc1ccc(-n2nc(C(F)(F)F)cc2-c2ccc3c(ccc4ccccc43)c2)cc1 + CC(=O)c1c(C)c2cnc(Nc3ccc(N4CCNCC4)cn3)nc2n(C2CCCC2)c1=O [Palbociclib] (partner 0.5 µM) (assay: relative viability (nuclei count vs DMSO), 5 days (fraction); higher = more cells survive). Details: first compound 0.02 µM.
How it was run: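 Lung cancer cell lines, seeded in 1536-well plates, were treated the following day by pin tool with a single drug or with five library-drug doses (not always all listed) in √10 steps on top of a fixed anchor-drug dose. Cells were fixed and nuclei stained in one step after 5 days, and nuclei were counted. Relative viability is the nuclei count for treated wells divided by that for vehicle wells, reported as medians of duplicate plates.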

| Cell Line | relative viability |
| --- | --- |
| NCI-H2342 | 0.627 |
| NCI-H727 | 0.674 |
| NCI-H1650 | 0.377 |
| NCI-H1993 | 0.658 |
| SW 1573 | 0.409 |
| NCI-H838 | 0.228 |
| LCLC-103H | 0.41 |
| NCI-H520 | 0.222 |
| NCI-H2126 | 0.369 |
| EMC-BAC-2 | 0.514 |
| NCI-H2085 | 0.533 |
| HCC-366 | 0.399 |
| NCI-H1666 | 0.658 |
| LK-2 | 0.538 |
| NCI-H2087 | 0.256 |
| NCI-H1648 | 0.283 |
| SK-MES-1 | 0.34 |
| H3255 | 0.35 |
| COR-L23 | 0.297 |
| COR-L 105 | 0.4 |
| LOU-NH91 | 0.647 |

| Cell Line | relative viability |
| --- | --- |
| ChaGo-K-1 | 0.919 |
| NCI-H2170 | 0.374 |
| NCI-H2405 | 0.501 |
| HOP-62 | 0.453 |
| HCC-44 | 1.04 |
| NCI-H522 | 0.844 |
| LU99A | 0.418 |
| BEN | 0.441 |
| HARA | 0.258 |
| SW 900 | 0.513 |
| HCC-78 | 0.541 |
| NCI-H322M | 0.51 |
| LCLC-97TM1 | 0.249 |
| NCI-H2009 | 0.236 |
| A-427 | 0.502 |
| NCI-H441 | 0.242 |
| NCI-H661 | 0.412 |
| NCI-H1734 | 0.361 |
| NCI-H460 | 0.143 |
| NCI-H2347 | 0.426 |
| SK-LU-1 | 0.447 |

| Cell Line | relative viability |
| --- | --- |
| NCI-H1395 | 0.702 |
| 201T | 0.342 |
| NCI-H1915 | 0.535 |
| HCC-827 | 0.501 |
| LXF-289 | 0.591 |
| NCI-H23 | 0.493 |
| NCI-H647 | 0.431 |
| CAL-12T | 0.527 |
| NCI-H1651 | 0.508 |
| EPLC-272H | 0.332 |
| NCI-H2228 | 0.711 |
| NCI-H1792 | 0.651 |
| NCI-H1355 | 0.426 |
| NCI-H3122 | 0.197 |
| NCI-H1437 | 0.331 |
| NCI-H1755 | 0.48 |
| NCI-H2023 | 0.461 |
| HCC-15 | 0.714 |
| NCI-H1793 | 0.333 |
| PC-14 | 0.494 |

Same assay, conditions: first compound 0.06325 µM

| Cell Line | relative viability |
| --- | --- |
| NCI-H2342 | 0.552 |
| NCI-H727 | 0.795 |
| NCI-H1650 | 0.37 |
| NCI-H1993 | 0.599 |
| SW 1573 | 0.466 |
| NCI-H838 | 0.237 |
| LCLC-103H | 0.503 |
| NCI-H520 | 0.224 |
| NCI-H2126 | 0.334 |
| EMC-BAC-2 | 0.513 |
| NCI-H2085 | 0.477 |
| HCC-366 | 0.449 |
| NCI-H1666 | 0.677 |
| LK-2 | 0.831 |
| NCI-H2087 | 0.278 |
| NCI-H1648 | 0.267 |
| SK-MES-1 | 0.294 |
| H3255 | 0.313 |
| COR-L23 | 0.293 |
| COR-L 105 | 0.399 |
| LOU-NH91 | 0.519 |

| Cell Line | relative viability |
| --- | --- |
| ChaGo-K-1 | 0.929 |
| NCI-H2170 | 0.41 |
| NCI-H2405 | 0.519 |
| HOP-62 | 0.384 |
| HCC-44 | 0.961 |
| NCI-H522 | 0.996 |
| LU99A | 0.474 |
| BEN | 0.475 |
| HARA | 0.173 |
| SW 900 | 0.661 |
| HCC-78 | 0.482 |
| NCI-H322M | 0.502 |
| LCLC-97TM1 | 0.205 |
| NCI-H2009 | 0.147 |
| A-427 | 0.567 |
| NCI-H441 | 0.258 |
| NCI-H661 | 0.402 |
| NCI-H1734 | 0.343 |
| NCI-H460 | 0.2 |
| NCI-H2347 | 0.384 |
| SK-LU-1 | 0.442 |

| Cell Line | relative viability |
| --- | --- |
| NCI-H1395 | 0.678 |
| 201T | 0.374 |
| NCI-H1915 | 0.509 |
| HCC-827 | 0.545 |
| LXF-289 | 0.599 |
| NCI-H23 | 0.548 |
| NCI-H647 | 0.385 |
| CAL-12T | 0.481 |
| NCI-H1651 | 0.555 |
| EPLC-272H | 0.306 |
| NCI-H2228 | 0.78 |
| NCI-H1355 | 0.43 |
| NCI-H3122 | 0.182 |
| NCI-H1437 | 0.328 |
| NCI-H1755 | 0.444 |
| NCI-H2023 | 0.414 |
| HCC-15 | 0.732 |
| NCI-H1793 | 0.295 |
| PC-14 | 0.557 |

Same assay, conditions: first compound 0.2 µM

| Cell Line | relative viability |
| --- | --- |
| NCI-H2342 | 0.479 |
| NCI-H727 | 0.56 |
| NCI-H1650 | 0.225 |
| NCI-H1993 | 0.808 |
| SW 1573 | 0.344 |
| NCI-H838 | 0.224 |
| LCLC-103H | 0.483 |
| NCI-H520 | 0.24 |
| NCI-H2126 | 0.369 |
| EMC-BAC-2 | 0.537 |
| NCI-H2085 | 0.474 |
| HCC-366 | 0.378 |
| NCI-H1666 | 0.69 |
| LK-2 | 0.539 |
| NCI-H2087 | 0.262 |
| NCI-H1648 | 0.268 |
| SK-MES-1 | 0.329 |
| H3255 | 0.314 |
| COR-L23 | 0.346 |
| COR-L 105 | 0.411 |

| Cell Line | relative viability |
| --- | --- |
| LOU-NH91 | 0.528 |
| ChaGo-K-1 | 0.933 |
| NCI-H2170 | 0.391 |
| NCI-H2405 | 0.556 |
| HOP-62 | 0.42 |
| HCC-44 | 0.994 |
| NCI-H522 | 0.998 |
| LU99A | 0.434 |
| BEN | 0.473 |
| HARA | 0.287 |
| SW 900 | 0.534 |
| HCC-78 | 0.526 |
| NCI-H322M | 0.388 |
| LCLC-97TM1 | 0.22 |
| NCI-H2009 | 0.265 |
| A-427 | 0.527 |
| NCI-H441 | 0.265 |
| NCI-H661 | 0.39 |
| NCI-H1734 | 0.345 |
| NCI-H460 | 0.251 |
